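Tested at 5 concentrations; 48 h exposure; 96-well plates; endpoints linearly interpolated, else capped at highest concentration. GI50 = concentration required for 50% inhibition of growth. TGI denotes the concentration required for complete inhibition of growth.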
Legend:
Test in all cases: inhibition of tumour cell growth, NCI panel, 48 h
HOP-62 NSCLC = tested on: HOP-62 NSCLC
OVCAR-4 ovarian = tested on: OVCAR-4 ovarian
MALME-3M melanoma = tested on: MALME-3M melanoma
DU-145 prostate = tested on: DU-145 prostate
A549 NSCLC = tested on: A549 NSCLC
SW-620 colon = tested on: SW-620 colon
MCF7 breast = tested on: MCF7 breast
SN12C renal = tested on: SN12C renal
UO-31 renal = tested on: UO-31 renal
COLO 205 colon = tested on: COLO 205 colon
MDA-MB-435 = tested on: MDA-MB-435
NCI/ADR-RES ovarian = tested on: NCI/ADR-RES ovarian
HCC-2998 colon = tested on: HCC-2998 colon
M14 melanoma = tested on: M14 melanoma
HT29 colon = tested on: HT29 colon
UACC-257 melanoma = tested on: UACC-257 melanoma
T-47D breast = tested on: T-47D breast
SF-295 CNS = tested on: SF-295 CNS
SK-MEL-28 melanoma = tested on: SK-MEL-28 melanoma
NCI-H522 lung = tested on: NCI-H522 lung
SK-OV-3 ovarian = tested on: SK-OV-3 ovarian
HL-60(TB) leukemia = tested on: HL-60(TB) leukemia
SNB-19 CNS = tested on: SNB-19 CNS
EKVX NSCLC = tested on: EKVX NSCLC
UACC-62 melanoma = tested on: UACC-62 melanoma
HS 578T breast = tested on: HS 578T breast
MOLT-4 leukemia = tested on: MOLT-4 leukemia
IGROV1 ovarian = tested on: IGROV1 ovarian
HOP-92 NSCLC = tested on: HOP-92 NSCLC

O=C1[C@@H]2Cc3c([nH]c4ccccc34)[C@H](c3c(Cl)cccc3Cl)N2C(=O)CN1C1CCN(Cc2ccccc2)CC1 gave a GI50 (HOP-62 NSCLC) of 2.29 µM, a TGI (HOP-62 NSCLC) of 5.66 µM and a GI50 (OVCAR-4 ovarian) of 2.42 µM. The TGI (OVCAR-4 ovarian) was 5.1 µM, the GI50 (MALME-3M melanoma) was 2.3 µM and the TGI (MALME-3M melanoma) was 4.87 µM. For the same molecule, the GI50 (DU-145 prostate) was 4.55 µM, the TGI (DU-145 prostate) was over 14.3 µM and the GI50 (A549 NSCLC) was 2.68 µM. It also gave a TGI (A549 NSCLC) of 7.2 µM, a GI50 (SW-620 colon) of 2.93 µM and a TGI (SW-620 colon) of 7.19 µM. The GI50 (MCF7 breast) was 2.13 µM, the TGI (MCF7 breast) was 4.61 µM and the GI50 (SN12C renal) was 2.35 µM. For the same molecule, the TGI (SN12C renal) was 5.31 µM, the GI50 (UO-31 renal) was 1.43 µM and the TGI (UO-31 renal) was 3.15 µM. For the same molecule, the GI50 (COLO 205 colon) was 4.09 µM, the TGI (COLO 205 colon) was over 14.3 µM and the GI50 (MDA-MB-435) was 2.36 µM. The TGI (MDA-MB-435) was 4.81 µM, the GI50 (NCI/ADR-RES ovarian) was 2.78 µM and the TGI (NCI/ADR-RES ovarian) was 6.86 µM. The GI50 (HCC-2998 colon) was 2.27 µM, the TGI (HCC-2998 colon) was 4.72 µM and the GI50 (M14 melanoma) was 2.42 µM. It also gave a TGI (M14 melanoma) of 6.47 µM, a GI50 (HT29 colon) of 3.23 µM and a TGI (HT29 colon) of 8.02 µM. The GI50 (UACC-257 melanoma) was 2.46 µM, the TGI (UACC-257 melanoma) was 5.68 µM and the GI50 (T-47D breast) was 2.59 µM. The TGI (T-47D breast) was 7.95 µM, the GI50 (SF-295 CNS) was 2.46 µM and the TGI (SF-295 CNS) was 4.62 µM. For the same molecule, the GI50 (SK-MEL-28 melanoma) was 2.37 µM, the TGI (SK-MEL-28 melanoma) was 4.55 µM and the GI50 (NCI-H522 lung) was 2.95 µM. It also gave a TGI (NCI-H522 lung) of 7.7 µM, a GI50 (SK-OV-3 ovarian) of 2.85 µM and a TGI (SK-OV-3 ovarian) of 8.47 µM. The GI50 (HL-60(TB) leukemia) was 4.03 µM, the TGI (HL-60(TB) leukemia) was 13.6 µM and the GI50 (SNB-19 CNS) was 5.25 µM. For the same molecule, the TGI (SNB-19 CNS) was over 14.3 µM, the GI50 (EKVX NSCLC) was 6.78 µM and the TGI (EKVX NSCLC) was over 14.3 µM. The GI50 (UACC-62 melanoma) was 2.26 µM, the TGI (UACC-62 melanoma) was 4.66 µM and the GI50 (HS 578T breast) was 2.21 µM. It also gave a TGI (HS 578T breast) of 6.52 µM, a GI50 (MOLT-4 leukemia) of 3.03 µM and a TGI (MOLT-4 leukemia) of 13.8 µM. It also gave a GI50 (IGROV1 ovarian) of 2.07 µM, a TGI (IGROV1 ovarian) of 7.52 µM and a GI50 (HOP-92 NSCLC) of 1.55 µM. For the same molecule, the TGI (HOP-92 NSCLC) was 7.25 µM.

Reference: PubChem BioAssay (NCI)
